In EP1044978A2, “1-N-alkyl-5'-[(N'-(un)substituted)amido]spiroindolinonaphthoxazines, their preparation, compositions and (co)polymer matrices containing them” (Corning S.A., priority 1999, dated 2000):

Assay: Photochromic properties of lens samples (2 mm, compound in matrix I or II) exposed to UV radiation from a xenon lamp
Type: physicochemical
Settings: lens sample
Excerpt: The matrix used in accordance with the present invention may be one of two types :
A homopolymer of the monomer DIACRYL 121 (D121 : tetraethoxylated Bisphenol A dimethylmethacrylate), marketed by Akzo Nobel; or
A copolymer comprised of a 50/50 mixture by weight of D121 (as above) and polyethylene glycol dimethacrylate (Molecular weight = 400) (PEGDMA 400).
10^-5 moles of at least one compound of the invention, together with 0.2% by weight of AMBN (2,2'-azobis(2-methylbutyronitrile)) provided by Akzo, are added to 10 g of formulations able to generate cross-linked matrix I or II. The formulations thus prepared are then poured into a lens mould of 2 mm thickness and then cured by heating at 60°C for 6 hours, followed by heating at 80°C for 2 hours to give a lens sample.
The photochromic properties of the lens samples thus obtained were then evaluated as follows :
Said lens sample, containing said photochromic compounds in its mass, is exposed to a UV radiation (source: xenon lamp).
Bleu D: 1,3-dihydro-1,3,3,5,6-pentamethylspiro[2H-indole-2'3'-[3H]-naphth-[2,1-b][1,4]oxazine] supplied by Great Lakes. T0 : the transmission before exposure to UV TD15 : the transmission after 15 minutes' exposure to UV OID : optical induced density (D∞-D0) [D∞ is the density after exposure, D0 the density before exposure] t1/2 : time of half-darkness which characterises the kinetics of the return to the initial state when at the equilibrium the exposure is cut off. λmax : the maximum absorption in the visible spectrum after UV irradiation.

[1] = Matrix I (homopolymer of DIACRYL 121)
[2] = Matrix II (50/50 D121 / PEGDMA 400 copolymer)

Row | Compound | OID (optical induced density, D∞-D0) [1] | T0 (the transmission before exposure to UV) [1] | λmax (the maximum absorption in the visible spectrum after UV irradiation) [1] | OID (optical induced density, D∞-D0) [2] | T0 (the transmission before exposure to UV) [2] | λmax (the maximum absorption in the visible spectrum after UV irradiation) [2] | TD15 (the transmission after 15 minutes' exposure to UV) [1] | TD15 (the transmission after 15 minutes' exposure to UV) [2]
1 | 1,3-dihydro-1,3,3,4(5),5(6)-pentamethyl-5'-piperidinocarbonyl-spiro[2H]-indole-2,3'-[3H]naphth[2,1-b][1,4]oxazine [Example 5] | 0.905 | 77.6% | 626 nm | 1.067 | 80.7% | 622 nm | 9.7% | 6.9%
2 | Cc1ccc(NC(=O)c2cc3ccccc3c3c2OC2(C=N3)N(C)c3ccccc3C2(C)C)cc1 (stereo not shown) [Example 3, 1,3-dihydro-1,3,3-trimethyl-5'-p-(tolylcarbamoyl)spiro[2H-indole-2,3'-[3H]-naphtho[2,1-b][1,4]oxazine]] | 0.707 | 75.5% | 634 nm |  |  |  | 14.8% | 
3 | Cc1cc2c(cc1C)C(C)(C)C1(C=Nc3c(ccc4ccccc34)O1)N2C (stereo not shown) [Control II, 1,3-dihydro-1,3,3,5,6-pentamethylspiro[2H-indole-2'3'-[3H]-naphth-[2,1-b][1,4]oxazine], reference compound] | 0.280 | 90.5% | 616 nm | 0.357 | 90.5% | 616 nm | 47.5% | 39.8%
4 | CN1c2ccccc2C(C)(C)C12C=Nc1c(c(C(=O)N3CCc4ccccc43)cc3ccccc13)O2 (stereo not shown) [Example 4, 1,3-dihydro-1,3,3-trimethyl-5'-indolinocarbonylspiro[2H-indole-2,3'-[3H]-naphtho[2,1-b][1,4]oxazine]] | 0.339 | 86.9% | 622 nm | 0.553 | 85.4% | 622 nm | 39.8% | 23.9%
5 | CN1c2ccccc2C(C)(C)C12C=Nc1c(c(C(=O)N3CCCCC3)cc3ccccc13)O2 (stereo not shown) [Example 2, 1,3-dihydro-1,3,3-trimethyl-5'-piperidinocarbonylspiro[2H-indole-2,3'-[3H]-naphtho[2,1-b][1,4]oxazine]] | 0.152 | 89.0% | 618 nm |  |  |  | 62.6% | 

Second part, led by results:

Row | OID (optical induced density, D∞-D0) [1] | T0 (the transmission before exposure to UV) [1] | λmax (the maximum absorption in the visible spectrum after UV irradiation) [1] | OID (optical induced density, D∞-D0) [2] | T0 (the transmission before exposure to UV) [2] | λmax (the maximum absorption in the visible spectrum after UV irradiation) [2] | Compound | TD15 (the transmission after 15 minutes' exposure to UV) [1] | TD15 (the transmission after 15 minutes' exposure to UV) [2]
6 | 0.142 | 90.9% | 607 nm | 0.140 | 90.5% | 610 nm | CN1c2ccccc2C(C)(C)C12C=Nc1c(ccc3ccccc13)O2 (stereo not shown) [Control I, 1,3-dihydro-1,3,3-trimethylspiro[2H-indole-2,3'-[3H]-naphth[2,1-b][1,4]oxazine], reference compound] | 65.6% | 65.5%
7 |  |  |  | 0.324 | 88.9% | 620 nm | CN1c2ccccc2C(C)(C)C12C=Nc1c(c(C(=O)N3CCOCC3)cc3ccccc13)O2 (stereo not shown) [Example 1, 1,3-dihydro-1,3,3-trimethyl-5'-morpholinocarbonylspiro[2H-indole-2,3'-[3H]-naphtho[2,1-b][1,4]oxazine]] |  | 42.2%
8 |  |  |  | 0.437 | 86.9% | 622 nm | CC(C)CN1c2ccccc2C(C)(C)C12C=Nc1c(c(C(=O)N3CCCCC3)cc3ccccc13)O2 (stereo not shown) [Example 7, 1,3-dihydro-1-(2'-methylpropyl)-3,3-dimethyl-5'-piperidinocarbonylspiro[2H-indole-2,3'-[3H]-naphtho[2,1-b] [1,4]oxazine]] |  | 31.8%
9 |  |  |  | 0.858 | 81.9% | 634 nm | COc1ccc2c(c1)C(C)(C)C1(C=Nc3c(c(C(=O)N4CCCCC4)cc4ccccc34)O1)N2C (stereo not shown) [Example 6, 1,3-dihydro-5-methoxy-1,3,3-trimethyl-5'-piperidinocarbonylspiro[2H]-indole-2,3'-[3H]naphth[2,1-b][1,4]oxazine] |  | 11.3%
